“Also recorded” adds a separate entry of the source. Like-named read-outs stand apart in the source and are kept apart here.
What was measured:
colon 38 tumours = experiment: Tumour growth delay assay; type: in vivo, C57B1/6 mice
Experimental: C57B1/6 mice from the Animal Resource Unit, University of Auckland, were bred and housed under conditions of constant temperature and humidity, with sterile bedding and food, according to institutional ethical guidelines. All mice were aged between 8 and 12 weeks.
(§1) DMXAA was synthesized as the sodium salt (Rewcastle et al (1990) Journal of National Cancer Institute 82:528-529). DMXAA sodium salt was dissolved in sterile water and 25 mg/kg in a volume of 0.1 ml per 10 g body weight was injected intraperitoneally (i.p.) into mice.
Diclofenac (Sigma) was dissolved in dimethylsulphoxide, and was injected i.p. into mice in a volume of 25 μl per 10 g body weight. […]
Colon 38 tumour fragments (˜1 mm^3) were implanted subcutaneously (s.c.) in the left flank of anaesthetized (sodium pentobarbital, 81 mg/kg) mice. […] Tumour-bearing mice were treated with drugs according to the administration schedule described before, and the tumours measured using calipers, three times weekly thereafter. Tumour volumes were calculated as 0.52a^2b, where a and b are the minor and major axes of the tumour, respectively. The arithmetic means were calculated for each time point, counting cured tumours as zero volume. The growth delay was determined as the difference in the number of days required for the control versus treated tumours to increase four times in volume. […]

[1] = DMXAA plasma pharmacokinetic studies (HPLC assay); type: in vivo, mice
Experimental: as §1
Diclofenac (Sigma) was dissolved in dimethylsulphoxide, and was injected i.p. into mice in a volume of 25 μl per 10 g body weight. The required dose of diclofenac was injected concurrently with DMXAA.

human tumours = details: Phase I clinical trials; well-tolerated doses; cited from earlier work
[2] = system: tumours or human tumour xenografts; details: preclinical studies; cited from earlier work
glucoronidation of DMXAA = details: diclofenac 100 μM; mouse and human microsomes; cited from earlier work
[3] = system: 6-methylhydroxylation of DMXAA; details: diclofenac 100 μM; mouse and human microsomes; cited from earlier work
[4] = cited from earlier work

Cc1ccc2c(=O)c3cccc(CC(=O)O)c3oc2c1C [DMXAA, 5,6-dimethylxanthenone-4-acetic acid]
mice cured (colon 38 tumours; s.c. colon 38 tumours, DMXAA 25 mg/kg alone or with diclofenac 5 mg/kg i.p., 5 mice per group): none of the mice were cured; also recorded: no cure
AUC ([1]; mouse, plasma, ip, 0-6 hours, DMXAA 25 mg/kg i.p. alone or with diclofenac 5 mg/kg): 1330 µM·h
half-life ([1]; mouse, plasma, ip, DMXAA 25 mg/kg i.p. alone or with diclofenac 5 mg/kg): 2.7 h
tumour blood flow (dynamic MRI) (human tumours): significant reduction in tumour blood flow
tumour blood flow [2]: prolonged inhibition of tumour blood flow

O=C(O)Cc1ccccc1Nc1c(Cl)cccc1Cl [diclofenac, 2-[(2,6-dichlorophenyl)amino]benzeneacetic acid]
effect on the growth of colon 38 tumours (colon 38 tumours; diclofenac alone 5 mg/kg i.p.): no significant effect
effect on DMXAA plasma concentrations ([1]; 3 hours after administration, DMXAA 25 mg/kg with diclofenac doses below 100 mg/kg): no significant effect
inhibition of glucoronidation of DMXAA (glucoronidation of DMXAA): > 70%
inhibition of 6-methylhydroxylation of DMXAA [3]: > 54%
increase in the plasma DMXAA AUC ([4]; diclofenac 100 mg/kg i.p., female mice): 31%
increase in DMXAA T1/2 ([4]; diclofenac 100 mg/kg i.p., male and female mice, P<0.05): threefold increase
increase in the plasma DMXAA AUC ([4]; diclofenac 100 mg/kg i.p., male mice): 24%
increase in the plasma concentration and AUC of DMXAA ([4]; diclofenac 100 mg/kg, mice): 24-31%

Source: patent US7462642B2, “Anti-cancer combinations” (Cancer Research Technology Limited, priority 2003, dated 2008)
